# Experimental data taken from patent publication US20220096437A1, “ANTIBACTERIAL COMPOUNDS” (The University of Birmingham, priority 2019, published 2022).
# Read-outs that look alike come from different tables or passages of the source.
# Tested on: Mycobacterium tuberculosis H37Rv
# Experiment: Susceptibility testing against Mycobacterium tuberculosis H37Rv (broth microdilution, resazurin readout)
# Type: cell-based
# Settings: M. tuberculosis H37Rv, 7 days at 37° C., resazurin fluorescence; for MIC99: Gomperz fit, read-out: MIC99 (μM) M. tub H37Rv; for MIC50: read-out: MIC50 (μM) M. tub H37Rv
# [1] = Mycobacterium tuberculosis, 168 h
compound,measurement,setting,value
"Brc1cc(Br)cc(C2CC(CNC3CC3)N2Cc2ccccc2Br)c1 (racemic) [Azet 1, rac-N-(((2,4-cis)-1-(2-bromobenzyl)-4-(3,5-dibromophenyl)azetidin-2-yl)methyl)cyclopropana-mine]",MIC99,[1],51.8 µM
same,MIC50,[1],11.8 µM
"CN(C)CC1CC(c2cc(Br)cc(Br)c2)N1Cc1ccccc1Br (racemic) [Azet 2, rac-1-((2,4-cis)-1-(2-bromobenzyl)-4-(3,5-dibromophenyl)azetidin-2-yl)-N,N-dimethylmethanamine]",MIC50,[1],5.6 µM
"C#CCNCC1CC(c2cc(Br)cc(Br)c2)N1Cc1ccccc1Br (racemic) [Azet 3, rac-N-(((2,4-cis)-1-(2-bromobenzyl)-4-(3,5-dibromophenyl)azetidin-2-yl)methyl)prop-2-yn-1-amine]",MIC50,[1],22.8 µM
"CN(C)CC1CC(c2cc(C(F)(F)F)cc(C(F)(F)F)c2)N1Cc1ccccc1Br (racemic) [Azet 4, rac-1-((2,4-cis)-4-(3,5-bis(trifluoromethyl)phenyl)-1-(2-bromobenzyl)azetidin-2-yl)-N,N-dimethylmethanamine]",MIC99,[1],7.3 µM
same,MIC50,[1],6.59 µM
"CN(C)CC1CC(c2ccc(OC(F)(F)F)cc2)N1Cc1ccccc1OC(F)(F)F (racemic) [Azet 5, rac-N,N-dimethyl-1-((2,4- cis)-1-(2-(trifluoromethoxy)benzyl)-4-(4-(trifluoromethoxy)phenyl)azetidin-2-yl)methanamine]",MIC99,[1],12 µM
same,MIC50,[1],9.9 µM
"FC(F)(F)Oc1ccc(C2CC(CNC3CC3)N2Cc2ccccc2OC(F)(F)F)cc1 (racemic) [Azet 18, rac-N-(((2,4-cis)-1-(2-(trifluoromethoxy)benzyl)-4-(4-(trifluoromethoxy)phenyl)azetidin-2-yl)methyl)cyclopropana-mine]",MIC99,[1],13 µM
same,MIC50,[1],11.9 µM
"CNCC1CC(c2ccc(OC(F)(F)F)cc2)N1Cc1ccccc1OC(F)(F)F (racemic) [Azet 19, rac-N-methyl-1-((2,4-cis)-1-(2-(trifluoromethoxy)benzyl) (trifluoromethoxy)phenyl) azetidin-2-yl)methanamine]",MIC99,[1],7.2 µM
same,MIC50,[1],4.5 µM
"COCCNCC1CC(c2ccc(OC(F)(F)F)cc2)N1Cc1ccccc1OC(F)(F)F (racemic) [Azet 20, rac-2-methoxy-N-(((2,4- cis)-1-(2-(trifluoromethoxy)benzyl)-4-(4-(trifluoromethoxy)phenyl)azetidin-2-yl)methyl)ethan-1-amine]",MIC99,[1],18 µM
same,MIC50,[1],11 µM
"CC(C)NCC1CC(c2ccc(OC(F)(F)F)cc2)N1Cc1ccccc1Br (racemic) [Azet 29, rac-N-(((2,4-cis)-1-(2-bromobenzyl)-4-(4-(trifluoromethoxy)phenyl)azetidin-2-yl)methyl)propan-2-amine]",MIC99,[1],24.5 µM
same,MIC50,[1],9.85 µM
"CC(C)NCC1CC(c2ccccc2)N1Cc1ccccc1OC(F)(F)F (racemic) [Azet 30, rac-N-(((2,4-cis)-4-phenyl-1-(2-(trifluoromethoxy)benzyl)azetidin-2-yl)methyl)propan-2-amine]",MIC99,[1],48.9 µM
same,MIC50,[1],21.1 µM
"CC(C)NCC1CC(c2ccc(OC(F)(F)F)cc2)N1Cc1ccccc1OC(F)(F)F (racemic) [Azet 31, rac-N-(((2,4-cis)-1-(2-(trifluoromethoxy)benzyl)-4-(4-(trifluoromethoxy)phenyl)azetidin-2-yl)methyl)propan-2-amine]",MIC99,[1],26.4 µM
same,MIC50,[1],8.89 µM
"Clc1cc(Cl)cc(C2CC(CN3CCCC3)N2Cc2ccccc2Br)c1 (racemic) [Azet 32, rac-1-(((2,4-cis)-1-(2-bromobenzyl)-4-(3,5-dichlorophenyl)azetidin-2-yl)methyl)pyrrolidine]",MIC99,[1],9.21 µM
same,MIC50,[1],7.58 µM
"FC(F)(F)c1cc(C2CC(CN3CCCC3)N2Cc2ccccc2Br)cc(C(F)(F)F)c1 (racemic) [Azet 33, rac-1-(((2,4-cis)-4-(3,5-bis(trifluoromethyl)phenyl)-1-(2-bromobenzyl)azetidin-2-yl)methyl)pyrrolidine]",MIC99,[1],3.29 µM
same,MIC50,[1],6.93 µM
"Brc1cc(Br)cc(C2CC(CN3CCCC3)N2Cc2ccccc2Br)c1 (racemic) [Azet 34, rac-1-(((2,4-cis)-1-(2-bromobenzyl)-4-(3,5-dibromophenyl)azetidin-2-yl)methyl)pyrrolidine]",MIC99,[1],3.26 µM
same,MIC50,[1],7.03 µM
"FC(F)(F)Oc1ccc(C2CC(CN3CCC(c4ccc(C(F)(F)F)cc4)CC3)N2Cc2ccccc2Br)cc1 (racemic) [Azet 39, rac-1-(((2,4-cis)-1-(2-bromobenzyl)-4-(4-(trifluoromethoxy)phenyl)azetidin-2-yl)methyl)-4-(4-(trifluoromethyl)phenyl)pi-peridine]",MIC99,[1],90.9 µM
same,MIC50,[1],85 µM
"COc1ccc(C2CC(CN3CCCC3)N2Cc2ccccc2Br)cc1 (racemic) [Azet 42, rac-1-(((2,4-cis)-1-(2-bromobenzyl)-4-(4-methoxyphenyl)azetidin-2-yl)methyl)pyrrolidine]",MIC99,[1],42.6 µM
same,MIC50,[1],20.8 µM
"COc1ccccc1CN1C(CN2CCCC2)CC1c1ccc(Br)cc1 (racemic) [Azet 48, rac-1-(((2,4-cis)-4-(4-bromophenyl)-1-(2-methoxybenzyl)azetidin-2-yl)methyl)pyrrolidine]",MIC50,[1],20.3 µM
"FC(F)(F)c1ccccc1CN1C(CN2CCCC2)CC1c1ccccc1C(F)(F)F (racemic) [Azet 49, rac-1-(((2,4-cis)-1-(2-(trifluoromethyl)benzyl)-4-(2-(trifluoromethyl)phenyl)a-zetidin-2-yl)methyl)pyrrolidine]",MIC50,[1],6.68 µM
"FC(F)(F)c1cccc(C2CC(CN3CCCC3)N2Cc2ccccc2C(F)(F)F)c1 (racemic) [Azet 50, rac-1-(((2,4-cis)-1-(2-(trifluoromethyl)benzyl)-4-(3-(trifluoromethyl)phenyl)a-zetidin-2-yl)methyl)pyrrolidine]",MIC50,[1],7.04 µM
"FC(F)(F)c1ccc(C2CC(CN3CCCC3)N2Cc2ccccc2C(F)(F)F)cc1 (racemic) [Azet 51, rac-1-(((2,4-cis)-1-(2-(trifluoromethyl)benzyl)-4-(4-(trifluoromethyl)phenyl)a-zetidin-2-yl)methyl)pyrrolidine]",MIC50,[1],8.31 µM
"CC(C)(C)c1ccc(C2CC(CN3CCCC3)N2Cc2ccccc2C(F)(F)F)cc1 (racemic) [Azet 52, rac-1-(((2,4-cis)-4-(4-(tert-butyl)phenyl)-1-(2-(trifluoromethyl)benzyl)a-zetidin-2-yl)methyl)pyrrolidine]",MIC50,,8.62 µM
"COc1ccccc1CN1C(CN2CCCC2)CC1c1ccc(Cl)cc1 (racemic) [Azet 53, rac-1-(((2,4-cis)-4-(4-chlorophenyl)-1-(2-methoxybenzyl)azetidin-2-yl)methyl)pyrrolidine]",MIC50,[1],10.3 µM
"COc1ccccc1CN1C(CN2CCCC2)CC1c1cccc(Cl)c1 (racemic) [Azet 54, rac-1-(((2,4-cis)-4-(3-chlorophenyl)-1-(2-methoxybenzyl)azetidin-2-yl)methyl)pyrrolidine]",MIC50,[1],11.7 µM
"COc1ccccc1CN1C(CN2CCCC2)CC1c1ccccc1Cl (racemic) [Azet 55, rac-1-(((2,4-cis)-4-(2-chlorophenyl)-1-(2-methoxybenzyl)azetidin-2-yl)methyl)pyrrolidine]",MIC50,[1],27.6 µM
"FC(F)(F)Oc1ccccc1CN1C(CN2CCCC2)CC1c1ccccc1OC(F)(F)F (racemic) [Azet 57, rac-1-(((2,4-cis)-1-(2-(trifluoromethoxy)benzyl) (trifluoromethoxy)phenyl)azetidin-2-yl)methyl)pyrrolidine]",MIC50,[1],7.05 µM
"FC(F)(F)Oc1cccc(C2CC(CN3CCCC3)N2Cc2ccccc2OC(F)(F)F)c1 (racemic) [Azet 58, rac-1-(((2,4-cis)-1-(2-(trifluoromethoxy)benzyl) (trifluoromethoxy)phenyl)azetidin-2-yl)methyl)pyrrolidine]",MIC50,[1],9.14 µM
"FC(F)(F)Oc1ccc(C2CC(CN3CCCC3)N2Cc2ccccc2OC(F)(F)F)cc1 (racemic) [Azet 59, rac-1-(((2,4-cis)-1-(2-(trifluoromethoxy)benzyl)-4-(4-(trifluoromethoxy)phenyl)azetidin-2-yl)methyl)pyrrolidine]",MIC99,[1],6.25 µM
same,MIC50,[1],9.42 µM
"FC(F)(F)Oc1ccccc1CN1C(CN2CCCC2)CC1c1ccccc1 (racemic) [Azet 61, rac-1-(((2,4-cis)-4-phenyl-1-(2-(trifluoromethoxy)benzyl)azetidin-2-yl)methyl)pyrrolidine]",MIC50,[1],17.9 µM
"Cc1ccccc1CN1C(CN2CCCC2)CC1c1ccccc1 (racemic) [Azet 62, rac-1-(((2,4-cis)-1-(2-methylbenzyl)-4-phenylazetidin-2-yl)methyl)pyrrolidine]",MIC50,[1],37 µM
"FC(F)(F)c1ccccc1CN1C(CN2CCCC2)CC1c1ccccc1 (racemic) [Azet 63, rac-1-(((2,4-cis)-4-phenyl-1-(2-(trifluoromethyl)benzyl)a-zetidin-2-yl)methyl)pyrrolidine]",MIC50,[1],22.7 µM
